Values joined by “and” are separate entries in the source; they are usually repeats but may differ in a detail not shown here. Equal entries are not always repeated. Marks after values point to notes of the source that are not given here. Blank lines part the entries; values can stand above or below the molecule they belong to.
Key:
[1] = quantitative (Q) 1H NMR spectroscopy, proportion of SSA becoming NMR silent (higher-order aggregates); assay type: physicochemical; details: for (Q) 1H NMR spectroscopy, proportion NMR silent, acid or anion / (Q) 1H NMR spectroscopy, proportion NMR silent, cation: 5.6 mM, D2O 5.0% EtOH, 298 K
Procedure: To confirm the presence of higher order self-associative structures quantitative (Q) ^1H NMR spectroscopy studies were undertaken at 5.6 mM in D2O 5% EtOH. Here the ^1H NMR resonances attributed to the EtOH are used as an internal standard.
Table S1 – Overview of results of the quantitative (Q) 1H NMR studies for 1, 3, 5, 7 and 9
5.0 % EtOH . Values given in % represent the observed proportion of the SSA that has become
Table S2 – Overview of results of the quantitative (Q) 1H NMR studies for 2, 4, 6, 8 and 10
5.0 % EtOH. Values given in % represent the observed proportion of anion and cation that has

[2] = dynamic light scattering (DLS) of SSA aggregates; assay type: physicochemical; details: 5.6 mM, H2O 5.0% EtOH, 298 K
Procedure: Dynamic light scattering (DLS) and zeta potential measurements in H2O 5.0% EtOH were used to determine the hydrodynamic diameter (dH) and stability of the higher-order SSA aggregates detected by (Q) ^1H NMR spectroscopy at 5.6 mM, Table 1. […] However, we are unable to confidently report a dH for 1 due to the instability of this system, which is supported by a zeta potential value of −26 mV, obtained for this SSA under the same experimental conditions. […] Due to the instability of these systems in the absence of solvent, attempts to further characterise these systems through SEM or AFM are not possible.[48]

P. aeruginosa PAO1 = test: inhibition of bacterial growth, OD600 after 20 h; assay type: cell-based, Pseudomonas aeruginosa; details: SSA 5.0 mM, 2.5% ethanol, negative = enhanced growth
Procedure: (§1) With the self-associative properties of 1–10 established, the antimicrobial activity of these SSAs were determined against a panel of clinically relevant, high-priority pathogens including: P. aeruginosa PAO1; Klebsiella pneumonia (K. pneumoniae) M6; E. coli NCTC 12923; Acinetobacter baumannii (A. baumannii) ATCC 17978; S. aureus ATCC 9144; Enterococcus faecalis (E. faecalis) NCTC 775; and Enterococcus faecium (E. faecium) NCTC 12204. […] However, it should be noted that the SSA stock solution was prepared in a H2O 5% EtOH solution, to ensure that the SSA aggregates formed were in line with those characterised within the scope of the SSA self-association studies.
(§2) Section 3: Biological methods
(§3) These methods were taken directly from UK Health and Security Office (UKHSA) standard […]
(§4) Preparation of Luria Broth media (LB): Yeast extract (5.0 g), tryptone (10.0 g) and sodium chloride (10.0 g) were dissolved in dH₂O (1.0 L) then divided into bottles and autoclaved.
(§5) Preparation of Luria Broth (LB) agar plates: Agar (6.0 g) was added to LB (400 mL) and autoclaved. Once cool, the LB agar was poured into sterile petri dishes under sterile conditions and allowed to set. LB plates were stored at 4 °C until use.
(§6) Preparation of bacterial plates: Sterile LB agar plates were streaked using streaked using the desired bacteria i) Pseudomonas aeruginosa (P.aeruginosa) PAO1, ii) Klebsiella pneumoniae (K. pneumoniae) M6 iii) E. coli NCTC 12923 and iv) Acinetobacter baumannii (A. baumannii) ATCC 17978 and Gram-positive i) Staphylococcus aureus (S. aureus) ATCC 9144 ii) Enterococcus faecalis (E. faecalis) NCTC 775 and iii) Enterococcus faecium (E. faecium ) NCTC 12204, then incubated at 37 °C overnight.
(§7) Preparation of Inoculum: An initial culture was made up by inoculating LB media (5 mL) with a single colony of bacteria under sterile conditions and incubated at 37 °C with shaking overnight. The following day, overnight bacterial cultures were subcultured into fresh LB medium to a starting OD600 of 0.01.
(§8) Preparation of 96 well microplate for MIC50: The 1:100 cell suspension (150 µL) was dispensed into individual wells under sterile conditions. SSAs (30 µL) were added to the wells to equal a total volume of 180 µL in the wells. Six repeats of each concentration for each SSA were created each plate. The plates were sealed using parafilm, then incubated at 37 °C in a microplate reader for 20 hours. OD600 endpoint data was used to generate growth curves. […]

K. pneumoniae M6 = test: inhibition of bacterial growth, OD600 after 20 h; assay type: cell-based, Klebsiella pneumoniae; details: SSA 5.0 mM, 2.5% ethanol, negative = enhanced growth
Procedure: as §1, §2, §3, §4, §5, §6, §7, §8

E. faecalis NCTC 775 = test: inhibition of bacterial growth, OD600 after 20 h; assay type: cell-based, Enterococcus faecalis; details: SSA 5.0 mM, 2.5% ethanol, negative = enhanced growth
Procedure: as §1, §2, §3, §4, §5, §6, §7, §8

[3] = tensiometry: critical aggregate concentration (CAC) and surface tension; assay type: physicochemical; details: for Surface tension at CAC: H2O/5.0 % EtOH
Procedure: As the (Q) ^1H NMR spectroscopy experiments conducted at 5.6 mM in a D2O 5.0% EtOH solution confirmed the presence of higher-order self-associated structures with solid-like properties, concentration dependent surface tension measurements, obtained through tensiometry, were used to calculate critical aggregate concentration (CAC). Here the CAC is defined as the point at which an increase in SSA concentration no longer decreases surface tension but instead results in the formation of higher-order self-associated structures.

E. faecium NCTC 12204 = test: inhibition of bacterial growth, OD600 after 20 h; assay type: cell-based, Enterococcus faecium; details: SSA 5.0 mM, 2.5% ethanol, negative = enhanced growth
Procedure: as §1, §2, §3, §4, §5, §6, §7, §8

S. aureus ATCC 9144 = test: inhibition of bacterial growth, OD600 after 20 h; assay type: cell-based, Staphylococcus aureus; details: SSA 5.0 mM, 2.5% ethanol, negative = enhanced growth
Procedure: as §1, §2, §3, §4, §5, §6, §7, §8

E. coli NCTC 12923 = test: inhibition of bacterial growth, OD600 after 20 h; assay type: cell-based, Escherichia coli; details: SSA 5.0 mM, 2.5% ethanol, negative = enhanced growth
Procedure: as §1, §2, §3, §4, §5, §6, §7, §8

A. baumannii ATCC 17978 = test: inhibition of bacterial growth, OD600 after 20 h; assay type: cell-based, Acinetobacter baumannii; details: SSA 5.0 mM, 2.5% ethanol, negative = enhanced growth
Procedure: as §1, §2, §3, §4, §5, §6, §7, §8

(Q) 1H NMR spectroscopy, proportion NMR silent, acid or anion ([1]; listed as 6): 42%
(Q) 1H NMR spectroscopy, proportion NMR silent, cation ([1]; listed as 6): 41.8% and 42%
(Q) 1H NMR, proportion NMR silent, cation ([1]; ~112 mM, DMSO-d6 1.0% DCM): 0%
DLS Peak 2 maxima ([2]; listed as 6): 5868 nm
Polydispersity index (%) ([2]; listed as 6): 21.5 (± 1.3) %
dH (DLS intensity distribution peak 1 maxima) ([2]; listed as 6): 164 nm
ST at the limit of solubility or 100 mM, whichever concentration is lower ([3]; H2O 5.0% EtOH, 298 K): 38 ^d mN m^−1
CAC (footnote in place of a value) ([3]; H2O 5.0% EtOH, 298 K, listed as 6): ^c (CAC is >100 mM)
Surface tension at CAC ([3]; listed as 6): 38.24 mN/m
Compound: COc1ccc(NC(=O)N[C@@H](CCC(=O)O)C(=O)O)cc1 [SSA 6]
Percentage inhibition of bacterial growth, PAO1 (P. aeruginosa) (P. aeruginosa PAO1; listed as 6): 29.42% and 29%
Percentage inhibition of bacterial growth, M6 (K. pneumoniae) (K. pneumoniae M6; listed as 6): 22.92% and 23%
Percentage inhibition of bacterial growth, NCTC 775 (E. faecalis) (E. faecalis NCTC 775; listed as 6): 7.71% and 8%
Percentage inhibition of bacterial growth, NCTC 12204 (E. faecium) (E. faecium NCTC 12204; listed as 6): 7.44% and 7%
Percentage inhibition of bacterial growth, ATCC 9144 (S. aureus) (S. aureus ATCC 9144; listed as 6): 55.64% and 56%
Percentage inhibition of bacterial growth, NCTC 12923 (E. coli) (E. coli NCTC 12923; listed as 6): 32.77% and 33%
Percentage inhibition of bacterial growth, ATCC 17978 (A. baumannii) (A. baumannii ATCC 17978; listed as 6): -28.50% and −29%

(Q) 1H NMR, proportion NMR silent, SSA acid or anion ([1]; ~112 mM, DMSO-d6 1.0% DCM): 0%
DLS Peak 2 maxima ([2]; listed as 7): 5177 nm
Polydispersity index (%) ([2]; listed as 7): 19.6 (± 1.7) %
dH (DLS intensity distribution peak 1 maxima) ([2]; listed as 7): 214 nm
CAC (footnote in place of a value) ([3]; H2O 5.0% EtOH, 298 K): ^b (CAC above the limit of solubility)
ST at CAC ([3]; H2O 5.0% EtOH, 298 K, listed as 7): 55 mN m^−1
Surface tension at CAC ([3]; listed as 7): 54.72 mN/m
Compound: COc1ccc(NC(=O)N[C@@H](CC(=O)O)C(=O)O)cc1 [SSA 7]
Percentage inhibition of bacterial growth, PAO1 (P. aeruginosa) (P. aeruginosa PAO1; listed as 7): -24.25% and −24%
Percentage inhibition of bacterial growth, M6 (K. pneumoniae) (K. pneumoniae M6; listed as 7): 32.42% and 32%
inhibition at 5000 µM (E. faecalis NCTC 775; Enterococcus faecalis, NCTC775, 20 h, read-out: Percentage inhibition of bacterial growth, NCTC 775 (E. faecalis)): 47.2%
Percentage inhibition of bacterial growth, NCTC 775 (E. faecalis) (E. faecalis NCTC 775; listed as 7): 47%
Percentage inhibition of bacterial growth, NCTC 12204 (E. faecium) (E. faecium NCTC 12204; listed as 7): 50.11% and 50%
Percentage inhibition of bacterial growth, ATCC 9144 (S. aureus) (S. aureus ATCC 9144; listed as 7): 5.65% and 6%
Percentage inhibition of bacterial growth, NCTC 12923 (E. coli) (E. coli NCTC 12923; listed as 7): 64.22% and 64%
Percentage inhibition of bacterial growth, ATCC 17978 (A. baumannii) (A. baumannii ATCC 17978; listed as 7): 24.84% and 25%

(Q) 1H NMR spectroscopy, proportion NMR silent, acid or anion [1]: 47%
(Q) 1H NMR spectroscopy, proportion NMR silent, cation [1]: 41.8% and 42%
(Q) 1H NMR, proportion NMR silent, cation ([1]; ~112 mM, DMSO-d6 1.0% DCM): 0%
DLS Peak 2 maxima ([2]; listed as 8): 3417 nm
Polydispersity index (%) ([2]; listed as 8): 25.6 (± 1.0) %
dH (DLS intensity distribution peak 1 maxima) ([2]; listed as 8): 313 nm
ST at CAC ([3]; H2O 5.0% EtOH, 298 K, listed as 8): 52 mN m^−1
Surface tension at CAC ([3]; listed as 8): 51.98 mN/m
Compound: COc1ccc(NC(=O)N[C@@H](CC(=O)O)C(=O)O)cc1 [SSA 8]
Percentage inhibition of bacterial growth, PAO1 (P. aeruginosa) (P. aeruginosa PAO1; listed as 8): 37.24% and 37%
Percentage inhibition of bacterial growth, M6 (K. pneumoniae) (K. pneumoniae M6; listed as 8): 9.69% and 10%
Percentage inhibition of bacterial growth, NCTC 775 (E. faecalis) (E. faecalis NCTC 775; listed as 8): 38.33% and 38%
Percentage inhibition of bacterial growth, NCTC 12204 (E. faecium) (E. faecium NCTC 12204; listed as 8): -1.33% and −1%
Percentage inhibition of bacterial growth, ATCC 9144 (S. aureus) (S. aureus ATCC 9144; listed as 8): 96.79% and 97%
Percentage inhibition of bacterial growth, NCTC 12923 (E. coli) (E. coli NCTC 12923; listed as 8): 39.33% and 39%
Percentage inhibition of bacterial growth, ATCC 17978 (A. baumannii) (A. baumannii ATCC 17978; listed as 8): -20.26% and −20%

From PMC12645191, “Dicarboxylate and dicarboxylic acid appended supramolecular self-associating amphiphiles as antimicrobial agents against high priority bacterial pathogens” (Organic & Biomolecular Chemistry, 2025)
